# Reference: patent publication US7449495B2, “Retinoid derivatives with antiangiogenic, antitumoral and proapoptotic activities” (Sigma-Tau Industrie Farmaceutiche Riunite S.p.A., priority 2001, dated 2008)
# Assays:
# BMEC cells = assay: Endothelial BMEC cells chemotaxis (Boyden chamber); type: cell-based, bovine; conditions: 50 and 25 μM
# Experimental: The capacity of ST1879 to inhibit cellular migration through the polycarbonate filter in the direction of the chemoattractant factor, was quantitatively evaluated by counting the number of cells present on the lower side of the filter. The percentages of migration reported in table 8 were calculated according to the formula: (treated−control/control)×100.
# [1] = tested on: ornithine decarboxylase in mouse epidermis; conditions: in vivo; cited from earlier work
# [2] = tested on: human no small cell lung carcinoma NCI-H460; assay: Antitumoral activity in human no small cell lung carcinoma model NCI-H460; type: in vivo; conditions: NCI-H460, 15 mg/kg po
# Experimental: The ST1926 solution was prepared immediately before use and solubilised in cremophor:ethanol 1:1 and subsequently diluted 1:4 in buffered saline solution. The animal treatments were administered in a volume of 10 ml/kg. […] Measurements of tumor dimensions were performed using a digital calliper (Vernier Caliper) twice weekly, from the time in which the mass was measurable. The tumor mass was evaluated from the size of the two principal dimensions (length and breadth), expressed in mm, applying the formula (length×breadth^2)/2, that is, the tumor volume in mm3. For each experimental group, the percentage of tumor volume inhibition was calculated (TVI %), with respect to the control, namely (100−(T/C %). TVI was evaluated 2 days after the final administration of ST1926.
# A comparison between the TVI values obtained for each group was performed using the non parametric Mann Whitney test for non-paired data, using the Instat software from GraphPad inc.
# osteosarcoma SAOS = assay: Cytotoxicity test (sulphorodamine B), SAOS; type: cell-based; conditions: Homo sapiens, 24 h incubation, survival 48 h after removal
# From the text: (§1) Different cell lines deriving from solid tumors were also used. • 1. Human prostate carcinoma PC3 and DU145. These cell lines were maintained in RPMI 1640 medium containing 10% FCS, 1% sodium pyruvate and 1% glutamine; • 2. Human colon adenocarcinoma LoVo. This cell line was maintained in HAM's F-12 medium, containing 10% FCS and 1% glutamine. • 3. Human ovarian carcinoma such as A2780 and A2780/Dx, sensitive and resistant to drugs, respectively (doxorubicin, taxol, etoposide, vincristine); IGROV-1 and IGROV-1/Pt, sensitive and resistant to platinum-based chemotherapy, respectively, were maintained in RPMI 1640 medium containing 10% FCS, 1% sodium pyruvate and 1% glutamine; • 4. Human melanoma MeWo and MeS 2.21, glioblastoma GBM, no small cell lung carcinomas A431, NCI—H460, osteosarcomas SAOS and U2OS were maintained in RPMI 1640 medium containing 10% FCS, 1% sodium pyruvate and 1% glutamine.
# (§2) The cytotoxicity tests were carried out using NB4 or HL-60 cells in suspension (10000/well). The cells were seeded in a volume of 250 μl in 96 well plates and incubated for 24 hours at 37° C. […] The optical density was measured using a Multiskan spectrophotometer at 540 nm. […]
# (§3) Cell survival was determined by incubation with ST1926 for 24 hours, 48 hours after the removal of the compound. […]
# [3] = tested on: human microvascular endothelial (HMVE) cells; conditions: after 96 h of treatment, cited from earlier work
# [4] = tested on: Human ovarian carcinoma IGROV-1; assay: Cytotoxicity test (sulphorodamine B), IGROV-1; type: cell-based; conditions: 24 h incubation, survival 48 h after removal
# From the text: as §1, §2, §3
# [5] = tested on: HL60 acute promyelocytic leukaemia cell line; assay: Cytotoxicity test (sulphorodamine B), HL-60; type: cell-based; conditions: Homo sapiens, 24 h incubation, survival 48 h after removal
# From the text: To carry out the cytotoxicity tests, two acute promyelocytic leukaemia (APL) cell lines were used. • 1. Cell line NB4, carrying the chromosomal translocation t(15; 17) which generates the fusion protein PML/RARα. This cell line is extremely sensitive to the differentiating action of pharmaceutical doses of ATRA (10^−7-10^−6 M); • 2. Cell line HL60, which responds to ATRA less sensitively with respect to cell line NB4.
# These cell lines were maintained in RPMI 1640 containing 10% foetal calf serum (FCS) and 1% glutamine.
# The cytotoxicity tests were carried out using NB4 or HL-60 cells in suspension (10000/well). The cells were seeded in a volume of 250 μl in 96 well plates and incubated for 24 hours at 37° C. The following day, test compound ST 1926 [(2E)-3-[3′-(1-Adamantyl)-4′-hydroxy[1,1′-biphenyl]-4-yl]-2-propenoate/ic acid] was added at increasing concentrations, and the cells were incubated for a further 24 hours at 37° C. in a humidified atmosphere containing 5% CO2. On the 3rd day, the medium was removed by centrifuging the plate at 1600×g for 10 min and the supernatant decanted. […] The optical density was measured using a Multiskan spectrophotometer at 540 nm.
# as §3
# [6] = tested on: vitamin-A deficient hamster trachea in organ culture; conditions: cited from earlier work
# [7] = tested on: KG-1 and HL-60R leukemia and MDA-MB-231 breast cancer cells; conditions: cited from earlier work
# Human melanoma MeS 2.21 = assay: Cytotoxicity test (sulphorodamine B), MeS 2.21; type: cell-based; conditions: 24 h incubation, survival 48 h after removal
# From the text: as §1, §2, §3
structure (smiles),measurement,setting,value
"O=C(O)/C=C/c1ccc(-c2ccc(O)c(C34CC5CC(CC(C5)C3)C4)c2)cc1 [ST1926, E-4-(3-(1-adamantyl)-4-hydroxyphenyl)cinnamic acid]",chemotaxis of the BMEC cells towards FCS (in words),BMEC cells,inhibition of chemotaxis
same,activity in the ODC assay compared with compound 1 (in words),[1],lower activities
same,BWL % Max,[2]; qdx3x3w,4%
same,Lethality,[2]; qdx3x3w,0/8
same,TVI % ± SE,[2]; qdx3x3w,*52 ± 7%
same,BWL % Max,[2]; qdx4x3w,14%
same,Lethality,[2]; qdx4x3w,0/8
same,TVI % ± SE,[2]; qdx4x3w,**38 ± 8%
same,BWL % Max,[2]; qdx5x3w,4%
same,Lethality,[2]; qdx5x3w,0/8
same,TVI % ± SE,[2]; qdx5x3w,*40 ± 2%
same,IC50,osteosarcoma SAOS,250 nM
same,inhibition (%) at 0.5 μM,"[3]; 0.5 μM, relative to vehicle alone control",90%
same,IC50,"[3]; highest concentration evaluated 0.5 μM, read-out: IC50 (concentration inhibiting proliferation by 50%)",100 nM
same,IC50,[4],230 nM
same,IC50,[5],200 nM
same,activity in the TOC assay compared with compound 1 (in words),[6],lower activities
same,induction of cancer cell apoptosis (in words),[7],effectively induced cancer cell apoptosis
same,IC50,Human melanoma MeS 2.21,230 nM
